From patent US10172839B2, “Use of short term starvation regimen in combination with kinase inhibitors to enhance traditional chemo-drug efficacy and feasibility and reverse side effects of kinases in normal cells and tissues” (UNIVERSITY OF SOUTHERN CALIFORNIA, priority 2014, dated 2019)

Experiments:
[1] = Blood glucose levels in mice treated with STS, rapamycin, and rapamycin with STS; format: in vivo
Method: Methods: Short term starvation (STS) or fasting mimicking diet (FMD) were administrated bi-weekly for periods of 48 h or 4 days, respectively. The end of the dietary intervention coincided with the administration of doxorubicin by intravenous injection. The animals were given a period of 10 to 12 days to recover bodyweight between one cycle of dietary intervention and the next. […] One-way ANOVA test was performed and differences with p-value<0.05 were considered significant (p-value<0.05, 0.01 and 0.001 are indicated as *, […], respectively).

[2] = Stress resistance experiment: survival after high dose doxorubicin

In the case of `CO[C@H]1C[C@@H]2CC[C@@H](C)[C@@](O)(O2)C(=O)C(=O)N2CCCC[C@H]2C(=O)O[C@H]([C@H](C)C[C@@H]2CC[C@@H](O)[C@H](OC)C2)CC(=O)[C@H](C)/C=C(\C)[C@@H](O)[C@@H](OC)C(=O)[C@H](C)C[C@H](C)/C=C/C=C/C=C/1C` [rapamycin], the blood glucose ([1]; Rapa+STS/FMD mice (FIG. 1A)) is reported as “decreased blood glucose”, the blood glucose ([1]; rapamycin alone, intraperitoneally every day, ad lib feeding (FIG. 1A)) is reported as “increase of blood glucose” and the “mortality / survival at day 20” value ([2]; rapamycin 14 days + STS 48 h prior to doxorubicin 24 mg/kg iv (FIG. 2B)) is reported as “STS can reverse the sensitization of normal tissue to chemotherapy induced by rapamycin”. For the same compound, the “mortality / survival at day 20” value ([2]; rapamycin 14 days, then doxorubicin 24 mg/kg iv, ad lib feeding (FIG. 2B)) was “increased mortality”.
